Experimental data as given in patent US7071168B2, “Anti-cancer compounds and methods related thereto” (The Regents of the University of Colorado, priority 1998, dated 2006).

Experiments:
[1] = tested on: SCLC strain SHP-77; test: Colorimetric tetrazolium (MTT) assay for cell survival, SCLC strain SHP-77; assay type: cell-based, human
Outline: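 MTT assay: cells seeded overnight, treated in triplicate across a concentration range for 4 days at 37 °C, 5% CO2. On day 5, MTT was added for 4 h; formazan was dissolved in acidified isopropanol and absorbance read.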

[2] = tested on: bradykinin response of isolated guinea pig ileum; test: Anti-bradykinin activity on isolated guinea pig ileum; conditions: higher numbers indicate higher potency
Outline: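 Terminal ileum segments (25 mm) from overnight-fasted male Hartley guinea pigs, in Krebs' solution gassed with 95% O2/5% CO2 under 1 g tension, equilibrated 1 h. Bradykinin concentration-effect curves constructed without and with test compounds.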

[3] = biological target: T1, cloned human bradykinin B2 receptors (Homo sapiens, UniProt P30411); test: Anti-bradykinin activity on cloned human B2 receptors (CHO cells, Cytosensor microphysiometer); assay type: cell-based; conditions: higher numbers indicate higher potency
T1 sequence (P30411 1-391): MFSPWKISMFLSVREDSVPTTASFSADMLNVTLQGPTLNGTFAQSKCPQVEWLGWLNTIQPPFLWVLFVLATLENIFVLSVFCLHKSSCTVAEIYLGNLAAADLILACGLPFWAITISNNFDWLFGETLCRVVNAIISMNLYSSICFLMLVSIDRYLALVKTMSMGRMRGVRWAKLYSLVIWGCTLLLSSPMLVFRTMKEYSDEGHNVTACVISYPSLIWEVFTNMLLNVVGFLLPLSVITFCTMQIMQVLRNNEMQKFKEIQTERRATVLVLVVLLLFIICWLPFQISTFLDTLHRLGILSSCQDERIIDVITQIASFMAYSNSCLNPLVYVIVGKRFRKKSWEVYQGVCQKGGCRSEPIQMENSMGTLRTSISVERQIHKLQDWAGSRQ
Method: In general, Anti-bradykinin activity was determined by the classical guinea pig ileum assay and on Chinese hamster ovary (CHO) cells expressing cloned human bradykinin B2 receptors. Anti-tumor activity was determined on cultured human cancer cell lines using the standard tetrazolium (MTT) assay.
Chinese hamster ovary cells containing cloned and expressed human bradykinin B2 receptors were grown in cell cups of the Cytosensor microphysiometer in Ham's F-12 medium supplemented with sodium pyruvate and 10% FBS (Gibco 11765-054). For assay the cells were transferred to Ham's F-12 without bicarbonate or serum (Gibco 21700-075) and placed in the Cytosensor. Concentration-response curves were constructed to bradykinin in the presence or absence of new compounds.

[4] = isolated guinea pig ileum, pD2 of bradykinin is 7.4
[5] = cloned human B2 receptors, pD2 for bradykinin is 11

Compound | MTT: ED50 for killing of SCLC strain SHP-77 in vitro ([1]; SCLC strain SHP-77 in vitro) [µM] | GPI: pA2 for bradykinin antagonist activity on isolated guinea pig ileum [2, 4] | HUMAN: pA2 for bradykinin antagonist potency on cloned human B2 receptors [3, 5] | MTT: ED50 for killing of SCLC strain SHP-77 in vitro ([1]; Table 1, SHP-77, MTT, 4 days) [µM] | HUMAN: pA2 for bradykinin antagonist potency on cloned human B2 receptors ([3]; Table 1) | GPI: pA2 for bradykinin antagonist activity on isolated guinea pig ileum ([2]; Table 1)
O=C(C=Cc1cccnc1)NC(Cc1ccc2ccccc2c1)C(=O)NC1CCCCC1 (centres unmarked) [M408] | 22 | 4.6 | 11.5 |  |  | 
O=C(C=Cc1cccnc1)NC(Cc1ccc2ccccc2c1)C(=O)Nc1cccc(CO)c1 (centres unmarked) [M474] | 35 |  | Inact |  |  | 
CC1(C)CC(NC(=O)C(Cc2ccc(OCc3c(Cl)cccc3Cl)cc2)NC(=O)C(C#N)=Cc2ccc(O)cc2)CC(C)(C)N1 (centres unmarked) [M602] | 12 |  | 10.8 |  |  | 
DDD-(DArg-OC2Y-Arg)2 [M518] |  |  |  | 15 | 10 | 
CN(C(=O)C=Cc1c(F)c(F)c(F)c(F)c1F)C(Cc1ccc(OCc2c(Cl)cccc2Cl)cc1)C(=O)NC1CC(C)(C)NC(C)(C)C1 (centres unmarked) [M594] | 3.7 | 5.0 | 8 |  |  | 
DDD-(Eac-Arg-DIgl-Oic-Arg-OMe)2 [M608] |  |  |  | 13 | Inact | 
CC1(C)CC(NC(=O)C(Cc2csc3ccccc23)NC(=O)C=Cc2c(F)c(F)c(F)c(F)c2F)CC(C)(C)N1 (centres unmarked) [M418] | 3.8 | 7.0 | 10.3 |  |  | 
F5c-hPhe-Arg [M420] |  |  |  | 60 | 10.9 | 7.0
CN(C)c1ccc(C=CC(=O)NC(Cc2ccc(OCc3c(Cl)cccc3Cl)cc2)C(=O)NC2CC(C)(C)NC(C)(C)C2)cc1 (centres unmarked) [M582] | 3 | 5.4 | 9.5 |  |  | 
Cc1ccc(CSCC(NC(=O)C=Cc2c(F)c(F)c(F)c(F)c2F)C(=O)NC2CC(C)(C)NC(C)(C)C2)cc1 (centres unmarked) [M456] | 4.7 | 5.3 | Inact |  |  | 
DDD-(DArg-Arg-Aud-Pac-2Nal-Arg)2 [M516] |  |  |  | 1.4 | Ag | 0
DDD-(Arg-DIgl-Oic-Arg-OMe)2 [M598] |  |  |  | 13 | 10 | 
F5c-OBT-Arg [M550] |  |  |  | 80 | Ag | Inact
DDD-(Pac-2Nal-Arg-NH2)2 [M498] |  |  |  | 24 | Inact | 4.9
O=C(C=Cc1cccnc1)Nc1ccc(C(=O)NC(Cc2ccc3ccccc3c2)C(=O)O)cc1 (centres unmarked) [M422] | 52 |  | Inact |  |  | 
F5c-2Nal-Arg [M446] |  |  |  | 60 | 9 | 4.7

Compound | MTT: ED50 for killing of SCLC strain SHP-77 in vitro ([1]; SCLC strain SHP-77 in vitro) [µM] | GPI: pA2 for bradykinin antagonist activity on isolated guinea pig ileum [2, 4] | HUMAN: pA2 for bradykinin antagonist potency on cloned human B2 receptors [3, 5] | MTT: ED50 for killing of SCLC strain SHP-77 in vitro ([1]; Table 1, SHP-77, MTT, 4 days) [µM] | HUMAN: pA2 for bradykinin antagonist potency on cloned human B2 receptors ([3]; Table 1) | GPI: pA2 for bradykinin antagonist activity on isolated guinea pig ileum ([2]; Table 1)
DDD-(pABz-2Nal-Arg-NH2)2 [M500] |  |  |  | 40 | 11.4 | 0
CC1(C)CC(NC(=O)[C@H](CC(=O)O)NC(=O)[C@H](Cc2ccc3ccccc3c2)NC(=O)CCCCCCCCCCC(=O)N[C@@H](Cc2ccc3ccccc3c2)C(=O)N[C@@H](CC(=O)O)C(=O)NC2CC(C)(C)NC(C)(C)C2)CC(C)(C)N1 [M432] | 70 |  | 10 |  |  | 
α-DDD-(Lys-B9430-OMe)2 [M600] |  |  |  | 1.2 | Ag | 6.4
CC1(C)CC(NC(=O)[C@H](Cc2ccc3ccccc3c2)NC(=O)C=Cc2ccc(NC(=O)CCCCCCCCCCC(=O)Nc3ccc(C=CC(=O)N[C@@H](Cc4ccc5ccccc5c4)C(=O)NC4CC(C)(C)NC(C)(C)C4)cc3)cc2)CC(C)(C)N1 [M310] | 1.2 | 5.1 | Inact |  |  | 
DDD-(Arg-DIgl-Oic-Arg)2 [M226] |  |  |  | 35 | Inact | 5.7
CC1(C)CC(NC(=O)C(Cc2csc3ccccc23)NC(=O)C=Cc2cccs2)CC(C)(C)N1 (centres unmarked) [M476] | 15 | 4.6 | Inact |  |  | 
F5c-2Nal-Arg-NH2 [M450] |  |  |  | 26 | Inact | 4.9
CN(C)c1ccc(CNC(=O)C(Cc2ccc3ccccc3c2)NC(=O)C=Cc2c(F)c(F)c(F)c(F)c2F)cc1 (centres unmarked) [M536] | 4 |  | Inact |  |  | 
CN1CCN(NC(=O)C(Cc2ccc3ccccc3c2)NC(=O)c2cccc(NC(=O)C=Cc3c(F)c(F)c(F)c(F)c3F)c2)CC1 (centres unmarked) [M492] | 45 | 5.1 | Inact |  |  | 
DDD-(pABz-2Nal-Arg)2 [M400] |  |  |  | 22 | 11.5 | 5.1
CN1CCN(NC(=O)C(Cc2ccc3ccccc3c2)NC(=O)C=Cc2c(F)c(F)c(F)c(F)c2F)CC1 (centres unmarked) [M470] | 11 | 5.2 | Inact |  |  | 
CN(C)CCCNC(=O)C(Cc1ccc2ccccc2c1)NC(=O)C=Cc1c(F)c(F)c(F)c(F)c1F (centres unmarked) [M526] | 10 | 5.4 | Inact |  |  | 
CN(C)c1cccc2c(S(=O)(=O)NC(Cc3ccc(OCc4ccccc4)cc3)C(=O)NC3CC(C)(C)NC(C)(C)C3)cccc12 (centres unmarked) [M574] | 4.5 |  | Inact |  |  | 
DDD-(Pac-2Nal-Arg)2 [M484] |  |  |  | 25 | Inact | Inact
CN(C)c1ccc(C=CC(=O)NC(Cc2ccc3ccccc3c2)C(=O)N2CCSCC2)cc1 (centres unmarked) [M478] | 30 | 5.1 | Inact |  |  | 
CC1(C)CC(NC(=O)C(NC(=O)C=Cc2ccc(NC(=O)CCCCCCCCC(=O)O)cc2)C2Cc3ccccc3C2)CC(C)(C)N1 (centres unmarked) [M586-B] | 40 |  | 12.3 |  |  | 
